In ChEMBL document CHEMBL5465560, “Selectivity Literature for EUbOPEN Chemogenomic Library” (2024) one finds % of control and % of inhibition data, which are given here for 5 compounds.

The structures appear in SMILES notation.

Assay [1] deals with Tyrosine-protein kinase JAK1 (Homo sapiens, UniProt P23458). The assay is described as follows: Selectivity interaction (KinomeScan (DiscoverX)) EUB0000607a JAK1. Conditions: at 10 µM.
The target in assay [2] is Phosphorylase b kinase gamma catalytic chain, skeletal muscle/heart isoform (Homo sapiens) (UniProt Q16816). As to the kind of experiment: Selectivity interaction (KinomeScan (DiscoverX)) EUB0000666a PHKG1. Conditions: at 10 µM.
Assay [3] concerns the target Serine/threonine-protein kinase 24 (Homo sapiens) (UniProt Q9Y6E0). As to the kind of experiment: Selectivity interaction (ActivX KiNativ screen (ex vivo kinase selectivity in human PBMCs)) EUB0001619a STK24. In kind it is cell-based. Conditions: PBMC, at 1 µM.
In assay [4] the target is T1, Serine/threonine-protein kinase Nek1 (Homo sapiens) (UniProt Q96PY6).
T1 sequence (whole entry): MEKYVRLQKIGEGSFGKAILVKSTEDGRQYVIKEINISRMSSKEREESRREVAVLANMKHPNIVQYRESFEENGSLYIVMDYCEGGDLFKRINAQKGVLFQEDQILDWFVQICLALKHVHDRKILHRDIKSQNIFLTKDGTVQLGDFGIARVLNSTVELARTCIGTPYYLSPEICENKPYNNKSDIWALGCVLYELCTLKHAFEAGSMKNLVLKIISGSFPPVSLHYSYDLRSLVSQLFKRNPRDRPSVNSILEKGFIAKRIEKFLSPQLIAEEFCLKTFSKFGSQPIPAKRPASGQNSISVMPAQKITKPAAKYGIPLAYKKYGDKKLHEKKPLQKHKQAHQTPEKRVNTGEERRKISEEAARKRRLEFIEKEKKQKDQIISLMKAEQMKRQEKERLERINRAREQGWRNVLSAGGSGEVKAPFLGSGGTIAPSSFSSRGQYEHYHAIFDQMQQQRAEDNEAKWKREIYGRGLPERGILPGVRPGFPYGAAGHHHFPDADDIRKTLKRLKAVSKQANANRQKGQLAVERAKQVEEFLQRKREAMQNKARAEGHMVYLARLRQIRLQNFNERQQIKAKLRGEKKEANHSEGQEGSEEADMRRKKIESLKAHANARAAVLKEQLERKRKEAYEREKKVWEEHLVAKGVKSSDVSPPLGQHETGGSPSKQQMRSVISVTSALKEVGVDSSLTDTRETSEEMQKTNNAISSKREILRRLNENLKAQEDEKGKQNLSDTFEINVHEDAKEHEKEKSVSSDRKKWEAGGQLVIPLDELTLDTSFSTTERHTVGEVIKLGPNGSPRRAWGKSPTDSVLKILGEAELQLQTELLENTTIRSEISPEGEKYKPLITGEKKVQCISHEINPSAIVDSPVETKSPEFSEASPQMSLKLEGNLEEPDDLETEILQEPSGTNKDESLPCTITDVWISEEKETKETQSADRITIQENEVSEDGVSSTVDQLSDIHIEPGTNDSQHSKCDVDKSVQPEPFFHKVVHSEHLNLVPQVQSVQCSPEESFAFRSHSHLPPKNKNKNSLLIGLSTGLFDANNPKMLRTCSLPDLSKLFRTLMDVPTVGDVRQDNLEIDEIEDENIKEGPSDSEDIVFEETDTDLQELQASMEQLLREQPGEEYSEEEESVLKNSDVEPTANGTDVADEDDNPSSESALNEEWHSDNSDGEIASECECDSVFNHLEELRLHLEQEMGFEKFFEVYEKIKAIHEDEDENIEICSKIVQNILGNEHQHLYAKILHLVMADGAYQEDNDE
The assay is described as follows: Selectivity interaction (KinomeScan (DiscoverX)) EUB0001619a NEK1. Conditions: at 1 µM.

Assay [5] concerns the target T2, Serine/threonine-protein kinase Nek9 (Homo sapiens) (UniProt Q8TD19).
T2 sequence (whole entry): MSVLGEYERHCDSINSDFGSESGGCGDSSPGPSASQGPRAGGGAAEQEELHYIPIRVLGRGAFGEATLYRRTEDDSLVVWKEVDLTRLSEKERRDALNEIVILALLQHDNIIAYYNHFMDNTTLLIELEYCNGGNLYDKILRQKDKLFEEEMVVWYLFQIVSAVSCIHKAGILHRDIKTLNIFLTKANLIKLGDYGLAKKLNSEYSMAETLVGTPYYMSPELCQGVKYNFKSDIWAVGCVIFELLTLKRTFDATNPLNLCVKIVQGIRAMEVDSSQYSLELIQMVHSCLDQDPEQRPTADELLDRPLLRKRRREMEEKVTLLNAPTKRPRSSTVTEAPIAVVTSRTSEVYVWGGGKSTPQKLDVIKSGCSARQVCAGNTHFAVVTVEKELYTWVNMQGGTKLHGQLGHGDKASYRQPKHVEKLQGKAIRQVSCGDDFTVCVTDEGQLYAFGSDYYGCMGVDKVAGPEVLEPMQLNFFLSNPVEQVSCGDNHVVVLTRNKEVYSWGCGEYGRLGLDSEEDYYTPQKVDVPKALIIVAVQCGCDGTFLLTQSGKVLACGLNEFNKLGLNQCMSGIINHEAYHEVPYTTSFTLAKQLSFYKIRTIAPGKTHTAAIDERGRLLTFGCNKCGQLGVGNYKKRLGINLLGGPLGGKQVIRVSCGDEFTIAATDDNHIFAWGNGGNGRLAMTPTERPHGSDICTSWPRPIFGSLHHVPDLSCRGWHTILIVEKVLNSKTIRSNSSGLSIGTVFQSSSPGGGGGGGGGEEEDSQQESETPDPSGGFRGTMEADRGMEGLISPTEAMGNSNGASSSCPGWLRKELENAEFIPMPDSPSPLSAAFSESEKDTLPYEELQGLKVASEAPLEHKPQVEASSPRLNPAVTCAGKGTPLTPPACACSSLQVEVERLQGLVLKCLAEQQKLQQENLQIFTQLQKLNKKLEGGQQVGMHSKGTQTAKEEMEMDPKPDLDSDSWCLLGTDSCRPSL
As to the kind of experiment: Selectivity interaction (KinomeScan (DiscoverX)) EUB0001619a NEK9. Conditions: at 1 µM.

Assay [6] deals with Protein kinase C alpha type (Homo sapiens, UniProt P17252). The assay is described as follows: Selectivity interaction (ProQinase) EUB0000171b PRKCA.
Assay [7] has as its target T3, Dual specificity mitogen-activated protein kinase kinase 5 (Homo sapiens) (UniProt Q13163).
T3 sequence (whole entry): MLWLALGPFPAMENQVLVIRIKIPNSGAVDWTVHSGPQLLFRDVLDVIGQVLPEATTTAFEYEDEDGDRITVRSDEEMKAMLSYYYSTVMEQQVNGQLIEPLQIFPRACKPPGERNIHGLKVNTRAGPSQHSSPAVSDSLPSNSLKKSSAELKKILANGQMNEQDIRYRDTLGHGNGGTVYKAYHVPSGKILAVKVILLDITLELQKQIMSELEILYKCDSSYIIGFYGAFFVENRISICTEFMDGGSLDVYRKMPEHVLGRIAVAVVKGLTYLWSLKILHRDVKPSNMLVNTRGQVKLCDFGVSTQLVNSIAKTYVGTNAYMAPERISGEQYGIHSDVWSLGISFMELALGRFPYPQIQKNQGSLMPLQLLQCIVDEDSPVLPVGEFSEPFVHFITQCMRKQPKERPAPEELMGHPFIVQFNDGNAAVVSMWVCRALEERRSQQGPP
The assay is described as follows: Selectivity interaction (KinomeScan (DiscoverX)) EUB0000092b MAP2K5. Conditions: at 10 µM.

Sequence of Serine/threonine-protein kinase 24 (Homo sapiens) (Q9Y6E0 whole entry, looked up): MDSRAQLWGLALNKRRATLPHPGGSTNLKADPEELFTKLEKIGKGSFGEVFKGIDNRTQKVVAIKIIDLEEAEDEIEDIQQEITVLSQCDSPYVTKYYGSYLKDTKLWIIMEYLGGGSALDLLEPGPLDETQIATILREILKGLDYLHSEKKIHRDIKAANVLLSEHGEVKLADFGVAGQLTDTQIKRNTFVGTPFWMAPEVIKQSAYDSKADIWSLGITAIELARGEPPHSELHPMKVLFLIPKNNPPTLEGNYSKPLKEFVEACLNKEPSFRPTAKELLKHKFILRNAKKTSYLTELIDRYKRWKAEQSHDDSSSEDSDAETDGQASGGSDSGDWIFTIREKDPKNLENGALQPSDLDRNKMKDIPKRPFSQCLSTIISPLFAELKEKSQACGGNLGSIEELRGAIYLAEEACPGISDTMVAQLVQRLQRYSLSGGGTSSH
Sequence of Phosphorylase b kinase gamma catalytic chain, skeletal muscle/heart isoform (Homo sapiens) (Q16816 whole entry, looked up, canonical isoform): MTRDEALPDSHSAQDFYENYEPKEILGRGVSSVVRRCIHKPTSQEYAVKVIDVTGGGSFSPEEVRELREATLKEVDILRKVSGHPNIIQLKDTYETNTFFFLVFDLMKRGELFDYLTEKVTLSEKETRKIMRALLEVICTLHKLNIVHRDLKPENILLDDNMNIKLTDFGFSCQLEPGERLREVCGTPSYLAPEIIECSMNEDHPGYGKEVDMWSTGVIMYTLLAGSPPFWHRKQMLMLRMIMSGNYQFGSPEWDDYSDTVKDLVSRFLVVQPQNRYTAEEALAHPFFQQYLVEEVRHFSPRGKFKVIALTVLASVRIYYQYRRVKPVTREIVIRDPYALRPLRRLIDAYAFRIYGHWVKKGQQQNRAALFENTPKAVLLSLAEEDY
Sequence of Tyrosine-protein kinase JAK1 (P23458 whole entry, canonical isoform): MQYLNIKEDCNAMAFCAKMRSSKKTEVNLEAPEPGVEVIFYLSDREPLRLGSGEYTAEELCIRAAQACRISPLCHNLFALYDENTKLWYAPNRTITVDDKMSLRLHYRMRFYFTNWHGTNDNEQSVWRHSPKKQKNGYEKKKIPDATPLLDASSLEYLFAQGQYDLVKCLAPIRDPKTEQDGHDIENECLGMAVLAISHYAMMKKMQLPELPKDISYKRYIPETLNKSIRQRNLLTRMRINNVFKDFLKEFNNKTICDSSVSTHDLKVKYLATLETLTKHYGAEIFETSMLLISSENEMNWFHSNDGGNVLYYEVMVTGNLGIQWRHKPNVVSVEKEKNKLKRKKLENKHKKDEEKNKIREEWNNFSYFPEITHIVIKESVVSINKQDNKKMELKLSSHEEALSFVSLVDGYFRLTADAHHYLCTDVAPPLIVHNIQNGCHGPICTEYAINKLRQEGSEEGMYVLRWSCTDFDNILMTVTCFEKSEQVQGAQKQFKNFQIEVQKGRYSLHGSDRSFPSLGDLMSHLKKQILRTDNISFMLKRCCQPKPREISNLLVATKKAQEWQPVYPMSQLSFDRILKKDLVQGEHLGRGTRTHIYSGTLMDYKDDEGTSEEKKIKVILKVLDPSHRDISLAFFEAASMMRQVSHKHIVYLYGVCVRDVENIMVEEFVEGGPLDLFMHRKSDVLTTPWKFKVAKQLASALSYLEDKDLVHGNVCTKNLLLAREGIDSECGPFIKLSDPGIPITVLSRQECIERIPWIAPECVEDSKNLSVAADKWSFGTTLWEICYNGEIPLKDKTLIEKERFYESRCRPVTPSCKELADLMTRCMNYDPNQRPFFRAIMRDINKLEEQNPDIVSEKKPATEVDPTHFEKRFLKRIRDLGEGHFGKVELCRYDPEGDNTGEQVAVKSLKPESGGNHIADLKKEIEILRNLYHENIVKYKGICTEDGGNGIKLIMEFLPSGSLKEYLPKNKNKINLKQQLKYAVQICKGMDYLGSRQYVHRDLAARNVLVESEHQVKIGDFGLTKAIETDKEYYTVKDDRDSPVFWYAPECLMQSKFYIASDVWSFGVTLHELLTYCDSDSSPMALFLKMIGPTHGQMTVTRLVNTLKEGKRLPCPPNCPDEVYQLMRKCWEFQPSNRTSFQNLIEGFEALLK

In the case of `CNC(=O)Nc1ccc(-c2nc(N3CC4CCC(C3)O4)c3cnn(C4CCC5(CC4)OCCO5)c3n2)cc1`, the % of control in assay [1] was 83%.
As for `O=C(NOC[C@H](O)CO)c1ccc(F)c(F)c1Nc1ccc(I)cc1F`, the % of control in assay [2] was 100%.
Take `N#Cc1cccc(-c2c[nH]c3ncnc(N4CCOCC4)c23)c1`: the % of inhibition in assay [3] stood at 39%. In addition, the % of control in assay [4] was 100%; in assay [5] it was 97%.
Regarding `C=CC(=O)Nc1cccc(C(=O)Nc2ccc(Nc3cc(-c4[nH]c(SC)nc4C)ccn3)cc2)c1`, the % of control in assay [6] (at 1 µM) was 102%; in assay [6] (at 5 µM) it was 80%.
`CCC(=O)N1CCN(c2ccc(-n3c(=O)ccc4cnc5ccc(-c6cnc7ccccc7c6)cc5c43)cc2C(F)(F)F)CC1`: the % of control in assay [7] is 100%.
